Ki data for 2 compounds are collected here from US6358964B1, “Adenosine, A3 receptor modulators” (priority 2000, dated 2002).

In this experiment the target is T1, human recombinant A3 adenosine receptors (Homo sapiens, UniProt P0DMS8).
T1 construct: expressed in transfected cells; host or cells: CHO cells
T1 sequence (P0DMS8 1-318): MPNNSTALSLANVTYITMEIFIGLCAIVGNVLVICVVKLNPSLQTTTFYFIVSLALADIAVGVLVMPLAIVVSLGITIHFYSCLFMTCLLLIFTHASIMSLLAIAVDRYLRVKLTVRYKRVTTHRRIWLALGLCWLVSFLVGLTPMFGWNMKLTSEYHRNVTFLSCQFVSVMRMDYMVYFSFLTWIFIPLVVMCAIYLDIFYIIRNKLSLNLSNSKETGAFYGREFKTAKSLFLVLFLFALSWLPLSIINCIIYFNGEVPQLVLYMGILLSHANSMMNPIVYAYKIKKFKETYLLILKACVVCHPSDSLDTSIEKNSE
Description: Human cloned A3 adenosine receptor binding assay ([3H]MRE3008-F20 displacement, CHO membranes). Conditions: radioligand binding, read-out: binding affinity at human A3 receptors (hA3). On the procedure:
Inhibitory binding constant, Ki, values can be calculated from those of IC50 according to the Cheng & Prusoff equation (Cheng and Prusoff, Biochem. Pharmacol. 22:3099-3108 (1973)), Ki=IC50/(1+[C*]/KD*), where [C*] is the concentration of the radioligand and KD* its dissociation constant.
The expression of the human […], A2A and A3 receptors in CHO cells has been previously described (Klotz et al., 1998). The cells were grown adherently and maintained in Dulbecco's modified Eagle's medium with nutrient mixture F12 without nucleosides at 37° C. in 5% CO2/95% air. Cells were split two or three times weekly and then the culture medium was removed for membrane preparations. […]
Binding of [^3H] […] Bound and free radioactivity were separated by filtering the assay mixture through Whatman GF/B glass-fiber filters using a Micro-mate 196 cell harvester (Packard Instrument Company). The filter bound radioactivity was counted on Top Count (efficiency 57%) with Micro-Scint 20. The protein concentration was determined according to a BioRad method (Bradford, M. M., “A rapid and sensitive method for the quantification of microgram quantities of protein utilizing the principle of protein dye-binding,” Anal. Biochem. 72, 248, 1976) with bovine albumin as reference standard.

As for `COc1ccc(NC(=O)Nc2nc3ccc(Cl)cc3c3nc(-c4ccco4)nn23)cc1` [Compound 1], the Ki came out at 0.14 nM.

In the case of `O=C(Nc1cccc(Cl)c1)Nc1nc2ccc(Cl)cc2c2nc(-c3ccco3)nn12` [Compound 2], the Ki was 0.19 nM.
